In ChEMBL document CHEMBL1146571, “Mycalosides B-I, eight new spermostatic steroid oligoglycosides from the sponge Mycale laxissima” (J Nat Prod, 2003):
≈ marks a conversion by molar mass, not a printed value.

Assay: Spermatostatic activity against Strongylocentrotus nudus sperm assessed as inhibition of egg fertilization preincubated 15 mins before artificial insemination
Assay type: functional, cell-based, Mesocentrotus nudus

| EC50 [mg/L] | Structure (SMILES) |
| --- | --- |
| 3.2 (≈ 3 µM) | CC(C)[C@H](C)/C=C/[C@@H](CO)[C@H]1C[C@H](O)[C@H]2[C@@H]3CC=C4[C@@H](O)[C@@H](O[C@@H]5O[C@H](CO)[C@@H](O[C@@H]6O[C@H](CO)[C@H](O)[C@H](O)[C@H]6O)[C@H](O[C@@H]6OC[C@@H](O)[C@@H](O)[C@@H]6O[C@H]6O[C@H](CO)[C@H](O)[C@H](O)[C@H]6O)[C@H]5O)CC[C@]4(C)[C@H]3CC[C@@]21C [MYCALOSIDE A] |
| 3.2 (≈ 3.04 µM) | CC(C)CCC[C@@H](CO)[C@H]1CC(=O)[C@H]2[C@@H]3CC=C4[C@@H](O)[C@@H](O[C@@H]5O[C@H](CO)[C@@H](O[C@@H]6O[C@H](CO)[C@H](O)[C@H](O)[C@H]6O)[C@H](O[C@@H]6OC[C@@H](O)[C@@H](O)[C@@H]6O[C@H]6O[C@H](CO)[C@H](O)[C@H](O)[C@H]6O)[C@H]5O)CC[C@]4(C)[C@H]3CC[C@]12C [MYCALOSIDE G] |
